Measured values from paper PMC11490872, “Drug-resistant menin variants retain high binding affinity and interactions with MLL1” (The Journal of Biological Chemistry, 2024).
Numbering of substitutions follows the chain as printed. One block for each compound: values may come before it. Where no end group is shown, it is not given here.

Legend:
menin^G331R = molecular target: T1, menin^G331R (Homo sapiens, UniProt O00255, G326R); experiment: FP binding of fluorescein-labeled MLL1 peptides to menin^G331R; conditions: versus menin^WT, Fig. 1B (FP and ITC)
T1 construct: The gene encoding full-length human menin was cloned into a pET32a expression vector; thioredoxin-His6 (cleaved yes); made in house; host or cells: E. coli BL21(DE3)
T1 sequence (O00255 1-610 G326R): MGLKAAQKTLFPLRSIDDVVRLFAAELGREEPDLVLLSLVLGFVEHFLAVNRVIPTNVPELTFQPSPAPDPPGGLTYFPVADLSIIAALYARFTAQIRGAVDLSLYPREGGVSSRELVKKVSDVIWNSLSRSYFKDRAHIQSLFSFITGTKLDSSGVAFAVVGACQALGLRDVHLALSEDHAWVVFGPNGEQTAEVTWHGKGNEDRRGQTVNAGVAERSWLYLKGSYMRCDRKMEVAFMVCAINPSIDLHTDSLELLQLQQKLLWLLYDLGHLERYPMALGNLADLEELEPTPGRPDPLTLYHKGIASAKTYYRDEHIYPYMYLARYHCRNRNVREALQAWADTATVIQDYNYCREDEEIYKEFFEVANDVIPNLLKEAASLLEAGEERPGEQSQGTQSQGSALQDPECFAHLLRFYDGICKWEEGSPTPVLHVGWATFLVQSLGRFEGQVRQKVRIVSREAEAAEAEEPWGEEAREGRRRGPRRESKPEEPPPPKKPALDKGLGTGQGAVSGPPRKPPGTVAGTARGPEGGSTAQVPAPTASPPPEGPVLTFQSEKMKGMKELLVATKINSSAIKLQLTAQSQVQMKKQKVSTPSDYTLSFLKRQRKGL
Procedure: (§1) FP binding experiments utilized MLL1-derived peptides, FLSN-MLL1^4-43 at 4 nM and FLSN-MLL1^4-15 at 10 nM, titrated against a range of menin concentrations in the FP buffer (50 mM Tris pH 7.5, 50 mM NaCl, 1 mM TCEP) to obtain Kd measurements. Protein-peptide complexes were incubated for 1 h before measuring the change in fluorescence polarization and anisotropy at 525 nm after excitations at 495 nm using the PHERAstar microplate reader (BMG) ([2]).
(§2) FP competition experiments used FLSN-MLL1^4-43 at 4 nM and menin at 4 nM against varying concentrations of unlabeled MLL1 peptides in FP buffer for IC50 determination. Protein-peptide complexes were incubated for 1 h before unlabeled peptide competitors were added to ensure complete binding. Unlabeled peptide competitors were incubated with the protein-peptide complexes for 3 h before measurement using the PHERAstar microplate reader ([25]). Experiments with Revumenib were run with the same steps and conditions but used 5% DMSO in the final solution. Kd and IC50 values were calculated using GraphPad Prism 10 by plotting mP values measured for each protein/MLL1 peptide or Revumenib as a function of protein/MLL1 peptide (or Revumenib) concentration ([25]). All FP binding and competition experiments were run in triplicate.

menin^G331D = molecular target: T2, menin^G331D (Homo sapiens, UniProt O00255, G326D); experiment: FP binding of fluorescein-labeled MLL1 peptides to menin^G331D; conditions: versus menin^WT, Fig. 1B (FP and ITC)
T2 construct: The gene encoding full-length human menin was cloned into a pET32a expression vector; thioredoxin-His6 (cleaved yes); made in house; host or cells: E. coli BL21(DE3)
T2 sequence (O00255 1-610 G326D): T1 sequence (O00255 1-610 G326R) with R326D
Procedure: as §1, §2

[1] = tested on: wild-type, M327I, T349M, and G331R menin bound to FLSN-MLL1^4-43; experiment: FP competition, stated over wild-type, M327I, T349M and G331R menin; type: binding, human; conditions: versus MLL1^46
Procedure: as §2

[2] = molecular target: T3, menin^G331D-FLSN-MLL1^4-43 (Homo sapiens, UniProt O00255, G326D); experiment: FP competition, displacement of FLSN-MLL1^4-43 from menin^G331D; type: binding; conditions: even with increased incubation times, Fig. S6
T3 construct: The gene encoding full-length human menin was cloned into a pET32a expression vector; thioredoxin-His6 (cleaved yes); made in house; host or cells: E. coli BL21(DE3); probe peptide from GenScript
T3 sequence (O00255 1-610 G326D): T1 sequence (O00255 1-610 G326R) with R326D
Procedure: To better understand the mechanism of MLL1 binding with menin mutants, we performed FP competition experiments using FLSN-MLL1^4-43 as a fluorescent probe for competitive displacement by MLL1 peptides ([25]). First, we tested competition with MLL1^160 and found very similar IC50 values for wild-type menin and the three mutants M327I, T349M, and G331R, ranging between 4.1 and 8 nM (Fig. 3, A and B). […] We have hypothesized that the lack of competition with MLL1 for the menin^G331D mutant might result from a much slower dissociation rate of the menin^G331D–MLL1 complex, and to evaluate this we performed time-dependent competition experiments with MLL1^160 and MLL1^46. Standard conditions in the FP assay include 3 h incubations of the menin-FLSN-MLL1^4-43 complex with competitors.
as §2

[3] = molecular target: MLL1 MBM1 6-13 (Homo sapiens) (UniProt Q03164); conditions: cited from earlier work
[4] = molecular target: MLL1 MBM2 24-40 (Homo sapiens) (UniProt Q03164); conditions: cited from earlier work
menin = molecular target: menin; set-up: method as in PMID 20961854, PMID 22936661; conditions: cited from earlier work
[5] = tested on: patients with MLL1-r and NPM1-mut acute leukemias; conditions: cited from earlier work
[6] = Phase 1/2, AML patients with KMT2A (MLL1) rearrangements and NPM1 mutations

MLL1 MBM1 6-13 (Homo sapiens), sequence (Q03164 whole entry, looked up, tested part not stated): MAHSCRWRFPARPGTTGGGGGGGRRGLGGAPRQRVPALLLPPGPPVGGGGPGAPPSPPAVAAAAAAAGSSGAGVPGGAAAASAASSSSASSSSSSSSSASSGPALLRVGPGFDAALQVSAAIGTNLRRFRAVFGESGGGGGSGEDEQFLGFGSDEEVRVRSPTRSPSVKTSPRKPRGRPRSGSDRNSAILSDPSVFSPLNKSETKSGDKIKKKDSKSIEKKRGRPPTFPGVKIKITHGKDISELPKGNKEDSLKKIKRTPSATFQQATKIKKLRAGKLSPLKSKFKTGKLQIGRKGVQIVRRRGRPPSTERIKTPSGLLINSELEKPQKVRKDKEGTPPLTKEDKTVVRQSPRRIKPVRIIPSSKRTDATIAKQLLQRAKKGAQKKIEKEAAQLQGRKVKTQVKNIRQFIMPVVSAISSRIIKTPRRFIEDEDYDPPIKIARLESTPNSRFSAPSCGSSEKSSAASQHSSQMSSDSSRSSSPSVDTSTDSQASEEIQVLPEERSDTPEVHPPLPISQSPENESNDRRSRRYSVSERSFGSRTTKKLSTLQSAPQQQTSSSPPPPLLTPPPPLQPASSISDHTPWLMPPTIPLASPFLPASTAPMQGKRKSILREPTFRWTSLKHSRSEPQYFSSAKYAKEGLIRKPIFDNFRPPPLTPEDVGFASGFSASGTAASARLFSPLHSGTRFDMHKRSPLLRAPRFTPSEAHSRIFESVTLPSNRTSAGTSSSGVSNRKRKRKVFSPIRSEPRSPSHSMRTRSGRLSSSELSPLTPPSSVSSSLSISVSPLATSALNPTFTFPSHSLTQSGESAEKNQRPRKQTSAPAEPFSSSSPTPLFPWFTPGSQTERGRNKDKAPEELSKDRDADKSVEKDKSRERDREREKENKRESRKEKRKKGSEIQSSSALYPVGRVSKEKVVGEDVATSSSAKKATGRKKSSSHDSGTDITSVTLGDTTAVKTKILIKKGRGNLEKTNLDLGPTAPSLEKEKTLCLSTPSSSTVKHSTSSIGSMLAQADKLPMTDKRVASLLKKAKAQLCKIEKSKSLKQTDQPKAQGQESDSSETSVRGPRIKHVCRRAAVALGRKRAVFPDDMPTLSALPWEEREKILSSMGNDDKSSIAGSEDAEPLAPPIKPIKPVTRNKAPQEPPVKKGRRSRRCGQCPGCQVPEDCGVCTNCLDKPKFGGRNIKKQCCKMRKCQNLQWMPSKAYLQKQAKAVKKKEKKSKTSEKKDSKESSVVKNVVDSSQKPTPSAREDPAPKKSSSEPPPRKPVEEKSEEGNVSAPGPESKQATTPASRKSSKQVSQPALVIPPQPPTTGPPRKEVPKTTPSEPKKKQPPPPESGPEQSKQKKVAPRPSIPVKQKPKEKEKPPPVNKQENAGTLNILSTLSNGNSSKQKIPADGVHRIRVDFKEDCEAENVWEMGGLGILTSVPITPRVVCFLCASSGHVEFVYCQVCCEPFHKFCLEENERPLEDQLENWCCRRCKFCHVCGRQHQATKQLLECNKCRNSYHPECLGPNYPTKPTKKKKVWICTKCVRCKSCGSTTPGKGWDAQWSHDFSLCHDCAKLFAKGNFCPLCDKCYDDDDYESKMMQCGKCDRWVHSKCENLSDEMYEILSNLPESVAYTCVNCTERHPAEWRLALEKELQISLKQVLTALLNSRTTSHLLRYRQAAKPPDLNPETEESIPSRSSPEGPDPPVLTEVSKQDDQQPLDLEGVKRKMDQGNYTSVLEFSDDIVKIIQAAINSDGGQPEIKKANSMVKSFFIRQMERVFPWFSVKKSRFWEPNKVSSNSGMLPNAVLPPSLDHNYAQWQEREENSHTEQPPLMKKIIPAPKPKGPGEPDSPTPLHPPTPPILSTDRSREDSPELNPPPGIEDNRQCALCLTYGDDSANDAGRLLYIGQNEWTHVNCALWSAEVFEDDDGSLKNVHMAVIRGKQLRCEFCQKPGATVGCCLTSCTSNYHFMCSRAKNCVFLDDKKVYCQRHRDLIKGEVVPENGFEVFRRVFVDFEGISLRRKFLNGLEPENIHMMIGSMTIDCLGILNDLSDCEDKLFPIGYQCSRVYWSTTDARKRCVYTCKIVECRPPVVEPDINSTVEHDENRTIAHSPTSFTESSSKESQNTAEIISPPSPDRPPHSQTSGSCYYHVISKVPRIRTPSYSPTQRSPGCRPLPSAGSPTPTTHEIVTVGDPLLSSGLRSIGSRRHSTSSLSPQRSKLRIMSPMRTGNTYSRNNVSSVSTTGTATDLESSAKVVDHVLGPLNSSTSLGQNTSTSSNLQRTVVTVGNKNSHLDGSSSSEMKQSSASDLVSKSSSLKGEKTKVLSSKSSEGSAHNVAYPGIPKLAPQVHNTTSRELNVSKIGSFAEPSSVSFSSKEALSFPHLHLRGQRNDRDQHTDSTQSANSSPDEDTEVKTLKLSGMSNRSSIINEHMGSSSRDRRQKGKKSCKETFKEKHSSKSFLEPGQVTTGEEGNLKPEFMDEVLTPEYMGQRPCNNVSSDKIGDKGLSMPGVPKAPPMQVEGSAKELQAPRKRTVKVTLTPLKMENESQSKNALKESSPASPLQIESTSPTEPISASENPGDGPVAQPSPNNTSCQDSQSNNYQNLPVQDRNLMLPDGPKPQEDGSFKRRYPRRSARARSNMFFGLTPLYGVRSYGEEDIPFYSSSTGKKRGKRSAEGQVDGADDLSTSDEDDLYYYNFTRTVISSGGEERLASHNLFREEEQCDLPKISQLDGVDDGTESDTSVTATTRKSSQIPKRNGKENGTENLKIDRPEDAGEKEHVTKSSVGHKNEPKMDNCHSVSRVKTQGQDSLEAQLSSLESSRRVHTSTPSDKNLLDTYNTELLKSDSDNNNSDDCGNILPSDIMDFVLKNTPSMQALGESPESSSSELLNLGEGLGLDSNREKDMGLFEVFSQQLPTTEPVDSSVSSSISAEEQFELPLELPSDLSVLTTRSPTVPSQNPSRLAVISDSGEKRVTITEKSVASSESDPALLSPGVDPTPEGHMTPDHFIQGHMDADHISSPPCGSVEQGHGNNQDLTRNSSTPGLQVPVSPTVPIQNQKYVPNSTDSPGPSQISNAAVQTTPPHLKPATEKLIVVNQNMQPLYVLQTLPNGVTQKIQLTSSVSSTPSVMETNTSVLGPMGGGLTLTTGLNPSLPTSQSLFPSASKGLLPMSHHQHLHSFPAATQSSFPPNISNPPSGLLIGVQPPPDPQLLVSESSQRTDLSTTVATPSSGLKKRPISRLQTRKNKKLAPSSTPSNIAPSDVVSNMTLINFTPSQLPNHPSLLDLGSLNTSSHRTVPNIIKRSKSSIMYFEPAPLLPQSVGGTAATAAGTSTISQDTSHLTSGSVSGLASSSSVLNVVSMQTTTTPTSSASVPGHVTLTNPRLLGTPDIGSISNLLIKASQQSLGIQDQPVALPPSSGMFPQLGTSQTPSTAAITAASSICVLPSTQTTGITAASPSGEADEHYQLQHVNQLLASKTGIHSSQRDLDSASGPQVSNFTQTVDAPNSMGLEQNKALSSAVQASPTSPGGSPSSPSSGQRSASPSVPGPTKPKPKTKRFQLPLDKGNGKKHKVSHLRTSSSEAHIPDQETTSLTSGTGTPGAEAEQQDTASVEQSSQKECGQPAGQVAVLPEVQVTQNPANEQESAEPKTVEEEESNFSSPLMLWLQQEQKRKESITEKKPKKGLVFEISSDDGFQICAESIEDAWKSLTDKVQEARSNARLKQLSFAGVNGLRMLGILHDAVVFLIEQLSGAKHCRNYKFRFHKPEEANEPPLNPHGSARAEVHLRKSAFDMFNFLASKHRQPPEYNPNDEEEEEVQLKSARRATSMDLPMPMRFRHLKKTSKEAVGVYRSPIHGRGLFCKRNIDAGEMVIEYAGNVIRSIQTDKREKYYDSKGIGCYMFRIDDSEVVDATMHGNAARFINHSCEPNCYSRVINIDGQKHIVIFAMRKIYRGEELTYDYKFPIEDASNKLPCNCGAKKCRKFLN

decrease in binding affinity for G331R (menin^G331R): approximately 3 fold
decrease in binding affinity for G331D (menin^G331D): ~10 fold
Compound: C[C@H](NC(=O)[C@@H](N)CO)C(=O)N[C@@H](CCCNC(=N)N)C(=O)N[C@@H](Cc1c[nH]c2ccccc12)C(=O)N[C@@H](CCCNC(=N)N)C(=O)N[C@@H](Cc1ccccc1)C(=O)N1CCC[C@H]1C(=O)N[C@@H](C)C(=O)N[C@@H](CCCNC(=N)N)C(=O)N1CCC[C@H]1C(=O)NCC(=O)N[C@H](C(N)=O)[C@@H](C)O [MLL1^4-15]
weaker competition activity than MLL1^46 [1]: 3 orders of magnitude

competition for the menin^G331D variant [2]: no significant competition
Compound: SARWRFPARPGTTGGGGGGGRRGLG-NH2 (C-terminus assumed) [MLL1^4-28, reference compound]

Compound: Menin (from UniProt O00255)
Kd [3]: 56 nM
Kd [4]: 1000 nM

Compound: MBM2: menin binding motif 2, residues 24 to 40 of MLL1 (RRGLGGAPRQRVPALLL; UniProt Q03164 24-40, looked up, fragment)
Kd (menin): 1000 nM

decrease in binding affinity for G331R (menin^G331R): 3 fold
decrease in binding affinity for G331D (menin^G331D): 10 fold
Compound: MBM1: menin binding motif 1, amino acid residues 6 to 13 of MLL1 (RWRFPARP; UniProt Q03164 6-13, looked up, fragment)

Compound: CNc1nc(NC2CCN(Cc3ccc4c(cc(C#N)n4C[C@H](C)N4CCN(S(C)(=O)=O)CC4)c3C)CC2)c2cc(CC(F)(F)F)sc2n1 [Ziftomenib]
complete remission [5, 6]: ~35%
overall response rate [5, 6]: ~45%
rate of complete remission ([5]; phase 1/2 first-in-human trials, MLL1-r and NPM1-mut acute leukemias): over 30%
